The supplement of paper PMC11616607

Columns and labels:
Assay in all cases: drug sensitivity score (DSS) from 5-point dose-response viability curve (DSS (area-under-curve based score)); higher = more sensitive (stronger growth inhibition or killing); extreme values may be limits of the assay
Settings in all cases: exposure time: 72 h; concentration range: 5 concentrations over 10,000-fold range
[1] = tested on: JHOS2
How it was run: (§1)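 Each cell line and drug received a drug sensitivity score from Breeze software, where higher means more sensitive. Zero stands for no response. Scores came from CellTiter-Glo viability readings of ovarian cancer and normal ovarian cells, 1,500 per well in 384-well plates, after 3 days at 37°C, 5% CO2 with drugs at five concentrations over a 10,000-fold range.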

[2] = tested on: OVCAR5
How it was run: as §1

[3] = tested on: CAOV3
How it was run: as §1

[4] = tested on: OV90
How it was run: as §1

[5] = tested on: Kuramochi
How it was run: as §1

[6] = tested on: COV362
How it was run: as §1

[7] = tested on: COV318
How it was run: as §1

[8] = tested on: HOSE2C
How it was run: as §1

[9] = tested on: Ovsaho
How it was run: as §1

[10] = tested on: HOSE1C
How it was run: as §1

[11] = tested on: OVCAR8
How it was run: as §1

[12] = tested on: OVCAR4
How it was run: as §1

SMILES	drug sensitivity score [1]	drug sensitivity score [2]	drug sensitivity score [3]	drug sensitivity score [4]	drug sensitivity score [5]	drug sensitivity score [6]	drug sensitivity score [7]	drug sensitivity score [8]	drug sensitivity score [9]	drug sensitivity score [10]	drug sensitivity score [11]	drug sensitivity score [12]
c1cc(CN2CCCNCCNCCCNCC2)ccc1CN1CCCNCCNCCCNCC1 [Plerixafor]	0	0	0	0	0	0	0	0	0	0	0	0
CCCCCCCCc1ccc(CCC(N)(CO)CO)cc1 [Fingolimod]	5.5	6.4	6	6.2	7.5	6.2	7	5.4	7.6	7.4	6.8	7.5
Cc1ccc(F)c(NC(=O)Nc2ccc(-c3cccc4[nH]nc(N)c34)cc2)c1 [Linifanib]	0	0	0	0	0	0	0.2	0	0	0	0	0
Cc1cccc(-c2nn3c(c2-c2ccnc4ccc(C(N)=O)cc24)CCC3)n1 [Galunisertib]	0	0	0	0	0	1.8	0.3	0	0	0	0	0
COc1cc(C)[nH]c(=O)c1CNC(=O)c1c(C)n([C@H](C)C2CCOCC2)c2ccccc12 [CPI-360]	0.2	0.8	0	0.6	0	0	0	0	0	0	0	0
C=C1C[C@@H]2[C@H](CC[C@]3(C)C(=O)CC[C@@H]23)[C@@]2(C)C=CC(=O)C=C12 [Exemestane]	0	0	0	0.4	0	0	0	0	0	0	0	0
Nc1nc(Cl)nc2c1ncn2[C@@H]1O[C@H](CO)[C@@H](O)[C@@H]1F [Clofarabine]	13.5	9.5	17.1	11.9	3	7.3	4.7	24.1	4.7	25	22.4	0
CN(C)C(=O)c1cc2cnc(Nc3ccc(N4CCNCC4)cn3)nc2n1C1CCCC1 [Ribociclib]	2.9	2.3	0	0.6	0	0	0.2	0	0	0	0	0.6
CN(Cc1cnc2nc(N)nc(N)c2n1)c1ccc(C(=O)N[C@@H](CCC(=O)O)C(=O)O)cc1 [Methotrexate]	6.5	13.8	16.7	10.6	13	14.5	0	13.2	2.9	13.7	12.3	14.8
Cn1nnc2c(C(N)=O)ncn2c1=O [Temozolomide]	0	0	0	0	0	0	0	0.5	0	0	0	0
COC(=O)c1ccc2c(c1)[nH]c1ncnc(NCCCN3CCCCC3)c12 [UM729]	0	1	0	0	0	0	0	0	0.1	0.2	1.6	0
COc1cc2c(NC3CCN(C(C)C)CC3)nc(C3CCCCC3)nc2cc1OCCCN1CCCC1 [UNC0638]	0	3.4	0.1	5.4	0.8	4.1	0.6	0	0.3	0	3.6	0.9
Cc1ccc(C(=O)Nc2ccc(Oc3cc4cnn(C)c4cc3-c3cn[nH]c3)c(F)c2)c(=O)n1-c1ccc(F)cc1 [Merestinib]	2.4	0.9	0	0.6	1.1	0	0	0	0	0	0.1	0.4
NC(=S)N/N=C/c1ncccc1N [Triapine]	3.1	2.6	4.1	1.1	0.5	0.5	0.6	7.7	2.4	9.7	4.9	0
Cc1nc(C(=O)NCC(=O)O)c(O)c2ccc(Oc3ccccc3)cc12 [Roxadustat]	0.1	0	1.3	0	0.4	0	0	0	0	0	0	0.3
CC[C@@](C)(Nc1ccnc(-c2c[nH]c3ncccc23)n1)C(=O)NCC(F)(F)F [Decernotinib]	0	0	0	0	0	0	0	0.6	0	0	0	0
